Results published in ChEMBL document CHEMBL1201862, “PubChem BioAssay data set” (2004).
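Compound exposure: 48 hours, 5 concentrations, 96-well plates. At the GI50, growth is halved.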 Active and inactive are the calls of the source. Rule as the data show it: active = GI50 up to about 1.1 µM and inactive = higher.

Key:
Experiment in all cases: NCI tumour cell line growth inhibition, 48 h
[1] = test system: LXFL 529
[2] = test system: HOP-92
[3] = test system: DMS-114
[4] = test system: SW-620
[5] = test system: NCI-H522
[6] = test system: 786-0
[7] = test system: U-251
[8] = test system: SNB-78
[9] = test system: SF-268
[10] = test system: M19-MEL
[11] = test system: RXF 393
[12] = test system: A498
[13] = test system: RPMI-8226
[14] = test system: DLD-1
[15] = test system: CAKI-1
[16] = test system: OVCAR-4
[17] = test system: LOX IMVI
[18] = test system: SNB-19
[19] = test system: Malme-3M
[20] = test system: DMS-273
[21] = test system: SF-295
[22] = test system: HCC 2998
[23] = test system: UO-31
[24] = test system: HCT-15
[25] = test system: UACC-257
[26] = test system: OVCAR-5
[27] = test system: SNB-75
[28] = test system: OVCAR-8
[29] = test system: NCI-H226
[30] = test system: HOP-18
[31] = test system: K562
[32] = test system: SK-MEL-5
[33] = test system: EKVX
[34] = test system: HT-29
[35] = test system: HOP-62
[36] = test system: KM-20L2
[37] = test system: SK-OV-3
[38] = test system: HCT-116
[39] = test system: IGROV-1
[40] = test system: NCI-H460
[41] = test system: KM12
[42] = test system: SF-539
[43] = test system: UACC-62
[44] = test system: XF498
[45] = test system: COLO 205
[46] = test system: SK-MEL-28
[47] = test system: MOLT-4
[48] = test system: TK-10
[49] = test system: ACHN
[50] = test system: HL-60
[51] = test system: OVCAR-3
[52] = test system: SN12C
[53] = test system: NCI-H23
[54] = test system: A549
[55] = test system: CCRF-CEM
[56] = test system: M14
[57] = test system: SK-MEL-2
[58] = test system: NCI/ADR-RES
[59] = test system: MCF7

SMILES: CC1=Nc2ccccc2SC(c2c(Cl)cccc2Cl)C1 (centres undefined)
- GI50 [1]: 500 nM (active)
- GI50 [2]: 1820 nM (inactive)
- GI50 [3]: 1520 nM (inactive)
- GI50 [4]: 430 nM (active)
- GI50 [5]: 1220 nM (inactive)
- GI50 [6]: 454 nM (active)
- GI50 [7]: 345 nM (active)
- GI50 [8]: 3310 nM (inactive)
- GI50 [9]: 1010 nM (active)
- GI50 [10]: 1160 nM (inactive)
- GI50 [11]: 1340 nM (inactive)
- GI50 [12]: 2120 nM (inactive)
- GI50 [13]: 314 nM (active)
- GI50 [14]: 331 nM (active)
- GI50 [15]: 2100 nM (inactive)
- GI50 [16]: 1980 nM (inactive)
- GI50 [17]: 277 nM (active)
- GI50 [18]: 1380 nM (inactive)
- GI50 [19]: 1610 nM (inactive)
- GI50 [20]: 792 nM (active)
- GI50 [21]: 1340 nM (inactive)
- GI50 [22]: 1600 nM (inactive)
- GI50 [23]: 1710 nM (inactive)
- GI50 [24]: 1190 nM
- GI50 [25]: 1570 nM (inactive)
- GI50 [26]: 2390 nM (inactive)
- GI50 [27]: 1910 nM (inactive)
- GI50 [28]: 229 nM (active)
- GI50 [29]: 1510 nM (inactive)
- GI50 [30]: 3510 nM (inactive)
- GI50 [31]: 327 nM (active)
- GI50 [32]: 1490 nM (inactive)
- GI50 [33]: 2120 nM (inactive)
- GI50 [34]: 397 nM (active)
- GI50 [35]: 2150 nM (inactive)
- GI50 [36]: 1590 nM (inactive)
- GI50 [37]: 2450 nM (inactive)
- GI50 [38]: 225 nM (active)
- GI50 [39]: 1770 nM (inactive)
- GI50 [40]: 1140 nM (inactive)
- GI50 [41]: 828 nM (active)
- GI50 [42]: 993 nM (active)
- GI50 [43]: 1250 nM (inactive)
- GI50 [44]: 1800 nM (inactive)
- GI50 [45]: 1580 nM (inactive)
- GI50 [46]: 1360 nM (inactive)
- GI50 [47]: 490 nM (active)
- GI50 [48]: 2220 nM (inactive)
- GI50 [49]: 1710 nM (inactive)
- GI50 [50]: 341 nM (active)
- GI50 [51]: 281 nM (active)
- GI50 [52]: 1330 nM (inactive)
- GI50 [53]: 1320 nM (inactive)
- GI50 [54]: 1880 nM (inactive)
- GI50 [55]: 304 nM (active)
- GI50 [56]: 1520 nM (inactive)

SMILES: O=C(CCl)NC(Cc1ccc(F)cc1)C(=O)O (centres undefined)
- GI50 [2]: > 100000 nM (inactive)
- GI50 [3]: > 100000 nM (inactive)
- GI50 [4]: > 100000 nM (inactive)
- GI50 [5]: > 100000 nM (inactive)
- GI50 [7]: > 100000 nM (inactive)
- GI50 [8]: > 100000 nM (inactive)
- GI50 [9]: > 100000 nM (inactive)
- GI50 [10]: > 100000 nM (inactive)
- GI50 [57]: > 100000 nM (inactive)
- GI50 [12]: > 100000 nM (inactive)
- GI50 [13]: > 100000 nM (inactive)
- GI50 [14]: > 88900 nM (inactive)
- GI50 [15]: > 100000 nM (inactive)
- GI50 [16]: > 100000 nM (inactive)
- GI50 [17]: > 100000 nM (inactive)
- GI50 [18]: > 100000 nM (inactive)
- GI50 [19]: 69300 nM (inactive)
- GI50 [20]: > 100000 nM (inactive)
- GI50 [21]: > 100000 nM (inactive)
- GI50 [22]: > 92700 nM (inactive)
- GI50 [23]: > 100000 nM (inactive)
- GI50 [24]: > 100000 nM
- GI50 [25]: > 100000 nM (inactive)
- GI50 [26]: > 100000 nM (inactive)
- GI50 [58]: > 100000 nM (inactive)
- GI50 [27]: > 100000 nM (inactive)
- GI50 [28]: > 100000 nM (inactive)
- GI50 [29]: > 100000 nM (inactive)
- GI50 [30]: > 100000 nM (inactive)
- GI50 [31]: > 100000 nM (inactive)
- GI50 [32]: > 100000 nM (inactive)
- GI50 [33]: > 46000 nM (inactive)
- GI50 [34]: > 100000 nM (inactive)
- GI50 [35]: > 100000 nM (inactive)
- GI50 [36]: > 100000 nM (inactive)
- GI50 [37]: > 100000 nM (inactive)
- GI50 [38]: > 100000 nM (inactive)
- GI50 [39]: > 100000 nM (inactive)
- GI50 [40]: > 100000 nM (inactive)
- GI50 [41]: > 100000 nM (inactive)
- GI50 [42]: > 100000 nM (inactive)
- GI50 [43]: > 100000 nM (inactive)
- GI50 [44]: > 100000 nM (inactive)
- GI50 [45]: > 100000 nM (inactive)
- GI50 [46]: > 100000 nM (inactive)
- GI50 [47]: > 100000 nM (inactive)
- GI50 [59]: > 100000 nM (inactive)
- GI50 [50]: > 100000 nM (inactive)
- GI50 [51]: > 100000 nM (inactive)
- GI50 [52]: > 100000 nM (inactive)
- GI50 [53]: > 100000 nM (inactive)
- GI50 [54]: > 100000 nM (inactive)
- GI50 [55]: > 100000 nM (inactive)
